Data as given in patent US12606548B2, “Fungicidal oxadiazoles” (FMC CORPORATION, priority 2019, dated 2026).
Marks after values point to notes of the source that are not given here.

How the values were obtained:
Assay type in all cases: in vivo
Phakopsora pachyrhizi = assay: Test A: test suspension sprayed on soybean seedlings, inoculated next day with Phakopsora pachyrhizi (Asian soybean rust), visual disease rating; conditions: for Test A rating (% disease control): relative to the controls
Description: General protocol for preparing test suspensions for Tests A-C: the test compounds were first dissolved in acetone in an amount equal to 3% of the final volume and then suspended at the desired concentration (in ppm) in acetone and purified water (50/50 mix by volume) containing 250 ppm of the surfactant PEG400 (polyhydric alcohol esters). The resulting test suspensions were then used in Tests A-C. The test suspension was sprayed to the point of run-off on soybean seedlings. The following day the seedlings were inoculated with a spore suspension of Phakopsora pachyrhizi (the causal agent of Asian soybean rust) and incubated in a saturated atmosphere at 22° C., for 24 h and then moved to a growth chamber at 22° C., for 8 days, after which time visual disease ratings were made. […] A dash (-) indicates the compound was not tested. The test suspensions were sprayed at the concentration listed in the column “Rate in ppm”, unless otherwise indicated.

[1] = tested on: Puccinia recondita f. sp. tritici; assay: Test C: test suspension sprayed on wheat seedlings, inoculated next day with Puccinia recondita f. sp. tritici (wheat leaf rust), visual disease rating; conditions: for Test C rating (% disease control): relative to the controls
Description: General protocol for preparing test suspensions for Tests A-C: the test compounds were first dissolved in acetone in an amount equal to 3% of the final volume and then suspended at the desired concentration (in ppm) in acetone and purified water (50/50 mix by volume) containing 250 ppm of the surfactant PEG400 (polyhydric alcohol esters). The resulting test suspensions were then used in Tests A-C. The test suspension was sprayed to the point of run-off on wheat seedlings. The following day the seedlings were inoculated with a spore suspension of Puccinia recondita f. sp. tritici; (the causal agent of wheat leaf rust) and incubated in a saturated atmosphere at 20° C., for 24 h, and then moved to a growth chamber at 20° C., for 6 days, after which time visual disease ratings were made. […] A dash (-) indicates the compound was not tested. The test suspensions were sprayed at the concentration listed in the column “Rate in ppm”, unless otherwise indicated.

Zymoseptoria tritici = assay: Test B: test suspension sprayed on wheat seedlings, inoculated next day with Zymoseptoria tritici (wheat leaf blotch), visual disease rating; conditions: for Test B rating (% disease control): relative to the controls
Description: General protocol for preparing test suspensions for Tests A-C: the test compounds were first dissolved in acetone in an amount equal to 3% of the final volume and then suspended at the desired concentration (in ppm) in acetone and purified water (50/50 mix by volume) containing 250 ppm of the surfactant PEG400 (polyhydric alcohol esters). The resulting test suspensions were then used in Tests A-C.
The test suspension was sprayed to the point of run-off on wheat seedlings. The following day the seedlings were inoculated with a spore suspension of Zymoseptoria tritici (the causal agent of wheat leaf blotch) and incubated in a saturated atmosphere at 24° C., for 48 h, and then moved to a growth chamber at 20° C., for 17 days, after which time visual disease ratings were made.
Results for Tests A-C are given in Table A. In the Table, a rating of 100 indicates 100% disease control and a rating of 0 indicates no disease control (relative to the controls). A dash (-) indicates the compound was not tested. The test suspensions were sprayed at the concentration listed in the column “Rate in ppm”, unless otherwise indicated. An asterisk “*” next to the rating indicates a 250 ppm test suspension was used, a double asterisk “**” next to the rating indicates a 100 ppm test suspension was used, and a triple asterisk “***” next to the rating indicates a 50 ppm test suspension was used.

O=C(c1coc(Cc2ccc(-c3noc(C(F)(F)F)n3)cc2)n1)N1CCC(F)(F)C1 [compound 402]
Test A rating (% disease control) (Phakopsora pachyrhizi; Rate 10 ppm test suspension): 100%
Test C rating (% disease control) ([1]; Rate 10 ppm test suspension): 90%
Test B rating (% disease control) (Zymoseptoria tritici; 250 ppm test suspension): 96* %

4,5-dihydro-N,N-dimethyl-2-[[4-[5-(trifluoromethyl)-1,2,4-oxadiazol-3-yl]phenyl]methyl]-4-oxazolecarboxamide [Compound 178]
Test A disease control rating (Phakopsora pachyrhizi; 260 ppm test suspension): 100%
Test C disease control rating ([1]; 260 ppm test suspension): 100%
Test B disease control rating (Zymoseptoria tritici; 260 ppm test suspension): 93%

COCCNC(=O)c1coc(COc2ccc(-c3noc(C(F)(F)F)n3)cc2)n1 [compound 464]
Test A rating (% disease control) (Phakopsora pachyrhizi; Rate 10 ppm test suspension): 79%
Test C rating (% disease control) ([1]; Rate 10 ppm test suspension): 23%
Test B rating (% disease control) (Zymoseptoria tritici; 250 ppm test suspension): 94* %

1-[[4-[5-(trifluoromethyl)-1,2,4-oxadiazol-3-yl]phenyl]methyl]-2(1H)-quinoxalinone [Compound 158]
Test A disease control rating (Phakopsora pachyrhizi; 250 ppm test suspension): 100%
Test C disease control rating ([1]; 250 ppm test suspension): 100%
Test B disease control rating (Zymoseptoria tritici; 250 ppm test suspension): 0%

O=C(NCCC(F)(F)F)c1coc(COc2ccc(-c3noc(C(F)(F)F)n3)cc2)n1 [compound 467]
Test A rating (% disease control) (Phakopsora pachyrhizi; Rate 10 ppm test suspension): 97%
Test C rating (% disease control) ([1]; Rate 10 ppm test suspension): 68%
Test B rating (% disease control) (Zymoseptoria tritici; 250 ppm test suspension): 6* %

O=C(NCCn1cccn1)c1coc(COc2ccc(-c3noc(C(F)(F)F)n3)cc2)n1 [compound 466]
Test A rating (% disease control) (Phakopsora pachyrhizi; Rate 10 ppm test suspension): 100%
Test C rating (% disease control) ([1]; Rate 10 ppm test suspension): 55%
Test B rating (% disease control) (Zymoseptoria tritici; 250 ppm test suspension): 3* %

CCOC(=O)c1ccc(Cc2ccc(-c3noc(C(F)(F)F)n3)cc2)cc1 [compound 453]
Test A rating (% disease control) (Phakopsora pachyrhizi; Rate 10 ppm test suspension): 92%
Test C rating (% disease control) ([1]; Rate 10 ppm test suspension): 0%
Test B rating (% disease control) (Zymoseptoria tritici; 250 ppm test suspension): 50* %

CCOC(=O)c1cnn(CCN2CCC(c3noc(C(F)(F)F)n3)CC2)c1 [compound 459]
Test A rating (% disease control) (Phakopsora pachyrhizi; Rate 50 ppm test suspension): 0%
Test C rating (% disease control) ([1]; Rate 50 ppm test suspension): 0%
Test B rating (% disease control) (Zymoseptoria tritici; 250 ppm test suspension): 0* %

CCOC(=O)c1cnn(Cc2ccc(-c3noc(C(F)(F)F)n3)cc2)c1 [compound 276]
Test A disease control rating (Phakopsora pachyrhizi; 50 ppm test suspension): 100%
Test C disease control rating ([1]; 50 ppm test suspension): 80%
Test B disease control rating (Zymoseptoria tritici; 250 ppm test suspension): 35* %

CCNC(=O)c1csc(Cc2ccc(-c3noc(C(F)(F)F)n3)cc2)n1 [compound 488]
Test A rating (% disease control) (Phakopsora pachyrhizi; Rate 10 ppm test suspension): 100%
Test C rating (% disease control) ([1]; Rate 10 ppm test suspension): 100%
Test B rating (% disease control) (Zymoseptoria tritici; 250 ppm test suspension): 99* %

ON=Cc1cnn(Cc2ccc(-c3noc(C(F)(F)F)n3)cc2)c1 [compound 20]
Test A disease control rating (Phakopsora pachyrhizi; 250 ppm test suspension): 100%
Test C disease control rating ([1]; 250 ppm test suspension): 100%
Test B disease control rating (Zymoseptoria tritici; 250 ppm test suspension): 99%

methyl 4,5-dihydro-2-[[4-[5-(trifluoromethyl)-1,2,4-oxadiazol-3-yl]phenyl]methyl]-4-oxazolecarboxylate [Compound 74]
Test A disease control rating (Phakopsora pachyrhizi; 250 ppm test suspension): 100%
Test C disease control rating ([1]; 250 ppm test suspension): 96%
Test B disease control rating (Zymoseptoria tritici; 250 ppm test suspension): 0%

COCCNC(=O)c1csc(COc2ccc(-c3noc(C(F)(F)F)n3)cc2)n1 [compound 469]
Test A rating (% disease control) (Phakopsora pachyrhizi; Rate 10 ppm test suspension): 96%
Test C rating (% disease control) ([1]; Rate 10 ppm test suspension): 86%
Test B rating (% disease control) (Zymoseptoria tritici; 250 ppm test suspension): 65* %

CN(C)C(=O)C1=NOC(COc2cccc(-c3noc(C(F)(F)F)n3)c2)C1 (stereo not shown) [compound 502]
Test A rating (% disease control) (Phakopsora pachyrhizi; Rate 250 ppm test suspension): 100%
Test C rating (% disease control) ([1]; Rate 250 ppm test suspension): 100%
Test B rating (% disease control) (Zymoseptoria tritici; 250 ppm test suspension): 62%

CCOC(=O)c1cccc(Cc2ccc(-c3noc(C(F)(F)F)n3)cc2)c1 [Compound 454]
Test A rating (% disease control) (Phakopsora pachyrhizi; Rate 10 ppm test suspension): 100%
Test C rating (% disease control) ([1]; Rate 10 ppm test suspension): 0%
Test B rating (% disease control) (Zymoseptoria tritici; 250 ppm test suspension): 47* %

COC(=O)c1cnn(Cc2ccc(-c3noc(C(F)(F)F)n3)cc2)c1 [compound 21]
Test A disease control rating (Phakopsora pachyrhizi; 10 ppm test suspension): 100%
Test C disease control rating ([1]; 10 ppm test suspension): 100%
Test B disease control rating (Zymoseptoria tritici; 100 ppm test suspension (double asterisk **)): 97** %

CCOC(=O)c1cnn(C(C)c2ccc(-c3noc(C(F)(F)F)n3)s2)c1 (racemic) [Compound 192]
Test A disease control rating (Phakopsora pachyrhizi; 10 ppm test suspension): 100%
Test C disease control rating ([1]; 10 ppm test suspension): 100%
Test B disease control rating (Zymoseptoria tritici; 250 ppm test suspension): 99* %

OC(c1ccc(F)cc1)c1ccc(-c2noc(C(F)(F)F)n2)cc1 (racemic) [compound 500]
Test A rating (% disease control) (Phakopsora pachyrhizi; Rate 250 ppm test suspension): 100%
Test C rating (% disease control) ([1]; Rate 250 ppm test suspension): 100%
Test B rating (% disease control) (Zymoseptoria tritici; 250 ppm test suspension): 5* %

methyl 1,2-dihydro-2-oxo-1-[[4-[5-(trifluoromethyl)-1,2,4-oxadiazol-3-yl]phenyl]methyl]-4-pyridinecarboxylate [Compound 24]
Test A disease control rating (Phakopsora pachyrhizi; 270 ppm test suspension): 100%
Test C disease control rating ([1]; 270 ppm test suspension): 100%
Test B disease control rating (Zymoseptoria tritici; 270 ppm test suspension): 18%

O=C(NCC(F)(F)F)c1csc(Cc2ccc(-c3noc(C(F)(F)F)n3)cc2)n1 [compound 463]
Test A rating (% disease control) (Phakopsora pachyrhizi; Rate 10 ppm test suspension): 100%
Test C rating (% disease control) ([1]; Rate 10 ppm test suspension): 100%
Test B rating (% disease control) (Zymoseptoria tritici; 250 ppm test suspension): 65* %

COCCNC(=O)c1coc(Cc2ccc(-c3noc(C(F)(F)F)n3)cc2)n1 [compound 257]
Test A disease control rating (Phakopsora pachyrhizi; 10 ppm test suspension): 100%
Test C disease control rating ([1]; 10 ppm test suspension): 100%
Test B disease control rating (Zymoseptoria tritici; 250 ppm test suspension): 99* %

CC1(C)OCC(COC(=O)c2cnn(Cc3ccc(-c4noc(C(F)(F)F)n4)cc3)c2)O1 (stereo not shown) [compound 496]
Test A rating (% disease control) (Phakopsora pachyrhizi; Rate 10 ppm test suspension): 100%
Test C rating (% disease control) ([1]; Rate 10 ppm test suspension): 0%
Test B rating (% disease control) (Zymoseptoria tritici; 250 ppm test suspension): 48* %

ethyl 1-[[4-[5-(trifluoromethyl)-1,2,4-oxadiazol-3-yl]phenyl]methyl]-1H-pyrazole-4-carboxylate [Compound 83]
Test A disease control rating (Phakopsora pachyrhizi; 270 ppm test suspension): 100%
Test C disease control rating ([1]; 270 ppm test suspension): 100%
Test B disease control rating (Zymoseptoria tritici; 270 ppm test suspension): 5%

CCN(CC)C(=O)C1=NOC(Cc2ccc(-c3noc(C(F)(F)F)n3)s2)C1 (racemic) [compound 430]
Test A rating (% disease control) (Phakopsora pachyrhizi; Rate 50 ppm test suspension): 100%
Test C rating (% disease control) ([1]; Rate 50 ppm test suspension): 100%

CCONC(=O)c1cnn(Cc2ccc(-c3noc(C(F)(F)F)n3)cc2)c1 [compound 380]
Test A rating (% disease control) (Phakopsora pachyrhizi; Rate 10 ppm test suspension): 100%
Test C rating (% disease control) ([1]; Rate 10 ppm test suspension): 100%

FC(F)(F)c1nc(-c2ccc(Cn3ccc4ncccc43)cc2)no1 [Compound 136, 1-[[4-[5-(trifluoromethyl)-1,2,4-oxadiazol-3-yl]phenyl]methyl]-1H-pyrrolo[3,2-h]pyridine]
Test A disease control rating (Phakopsora pachyrhizi; 10 ppm test suspension): 100%
Test A disease control rating (Phakopsora pachyrhizi; 50 ppm test suspension): 100%
Test C disease control rating ([1]; 10 ppm test suspension): 68%
Test C disease control rating ([1]; 50 ppm test suspension): 94%

FC(F)(F)c1nc(-c2ccc(Cn3ncc4c(I)ccnc43)cc2)no1 [compound 444]
Test A rating (% disease control) (Phakopsora pachyrhizi; Rate 10 ppm test suspension): 96%
Test C rating (% disease control) ([1]; Rate 10 ppm test suspension): 86%

3-[5-[(4-bromo-1H-pyrazol-1-yl)methyl]-2-thienyl]-5-(trifluoromethyl)-1,2,4-oxadiazole [Compound 71]
Test A disease control rating (Phakopsora pachyrhizi; 10 ppm test suspension): 100%
Test C disease control rating ([1]; 10 ppm test suspension): 74%

CCOC(=O)C1=NOC(Cc2ccc(-c3noc(C(F)(F)F)n3)s2)C1 (racemic) [compound 366]
Test A disease control rating (Phakopsora pachyrhizi; 50 ppm test suspension): 100%
Test C disease control rating ([1]; 50 ppm test suspension): 100%

FC(F)(F)c1nc(-c2ccc(Cn3cc4ncccc4n3)cc2)no1 [compound 409]
Test A rating (% disease control) (Phakopsora pachyrhizi; Rate 10 ppm test suspension): 100%
Test C rating (% disease control) ([1]; Rate 10 ppm test suspension): 100%
